From patent US20070142304A1, “Diphenylazetidinone derivatives possessing chloesterol absorption inhibitory activity” (priority 2003, published 2007) come the findings set out here.

This experiment concerns 14C-cholesterol absorption. As to the kind of experiment: In Vivo Testing of Cholesterol Absorption Inhibitors (A). The conditions noted are these: 5 μmol/kg by gavage, C57BL/6 female mice, procedure A. As to the method: In Vivo Testing of Cholesterol Absorption Inhibitors (A)
C57BL/6 female mice were maintained on regular chow diet and housed in individual cages to collect faeces. Mice were fasted for 3 hours and then gavaged with vehicle or compound. Half an hour later the mice were gavaged with radiolabelled cholesterol. Six hours after the ^14C-cholesterol gavage blood samples were taken via the tail and plasma prepared to determine how much cholesterol were absorbed. 24 hours after the gavage of ^14C-cholesterol the mice were bled and plasma were prepared for analysis. Faeces were collected for 24 hours to assess absorption efficiency.

For the compound `CC(C)CC(NC(=O)COc1ccc(C2C(CCC(O)c3ccc(F)cc3)C(=O)N2c2ccc(F)cc2)cc1)C(=O)NC(Cc1ccccc1)C(=O)O` [Example 3, 1-(4-Fluorophenyl)-3-(R)-[3-(4-fluorophenyl)-3-hydroxypropyl]-4-(S)-{4-[N-((R)-1-{N-[1-(R)-(carboxy)-2-(phenyl)ethyl]carbamoyl}-3-methylbutyl)carbamoylmethoxy]phenyl}azetidin-2-one], the “inhibition of 14C-cholesterol absorption” value stood at 75%. With `O=C(COc1ccc(C2C(CCC(O)c3ccc(F)cc3)C(=O)N2c2ccc(F)cc2)cc1)NC(Cc1ccccc1)C(=O)NC(CO)C(=O)O` [Example 4, 1-(4-Fluorophenyl)-3-(R)-[3-(4-fluorophenyl)-3-hydroxypropyl]-4-(S)-[4-(N-{1-(R)-[N-(1-(S)-carboxy-2-hydroxyethyl)carbamoyl]-2-phenylethyl}carbamoylmethoxy)phenyl]azetidin-2-one] the figure was 58%.
